Consider twelve compounds from article PMC4282894, “Effect of Bile Salt Hydrolase Inhibitors on a Bile Salt Hydrolase from Lactobacillus acidophilus” (Pathogens, 2014).

The term inhibition denotes the change of the read-out against control, counted positive when it falls. A high value points to strong suppression. What is called % Inhibition is the percentage by which the read-out fell short of the control. Low readings indicate a weak effect, high ones a strong effect.

Counter-ions that a name gives are not always drawn.

T1 sequence (A5HKP3 whole entry): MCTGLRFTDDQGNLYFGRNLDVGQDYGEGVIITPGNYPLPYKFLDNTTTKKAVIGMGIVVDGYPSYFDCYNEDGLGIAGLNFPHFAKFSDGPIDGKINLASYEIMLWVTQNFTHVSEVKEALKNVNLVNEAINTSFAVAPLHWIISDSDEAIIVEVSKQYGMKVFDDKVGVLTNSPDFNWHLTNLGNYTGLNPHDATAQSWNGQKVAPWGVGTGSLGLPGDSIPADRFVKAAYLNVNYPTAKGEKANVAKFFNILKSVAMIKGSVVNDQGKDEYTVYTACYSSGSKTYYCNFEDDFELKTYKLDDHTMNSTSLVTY

One test addresses T1, L. acidophilus BSH (rBSH; LaciP) (Lactobacillus acidophilus, UniProt A5HKP3).
T1 construct: full-length BSH (316 aa), C-terminal His tag, pET-21b(+), E. coli BL21(DE3), Ni-NTA; about 32 kDa on SDS-PAGE
The experiment in a line: two-step ninhydrin BSH assay (glycine release from glycocholic acid). It counts as biochemical.
Conditions: not given
An excerpt:
two-step ninhydrin BSH assay (glycine release from glycocholic acid) on L. acidophilus BSH (rBSH; LaciP)
As to `O=C(/C=C/c1ccc(O)c(O)c1)OCCc1ccccc1` [Caffeic Acid Phenethyl Ester], the inhibition at 2500 µM worked out at 71.8%. For the compound `CC1=CC(=O)c2ccccc2C1=O` [Menadione], testing at 2500 µM gave an inhibition of 97.9%. Compound `C=C1c2cccc(O)c2C(=O)C2=C(O)[C@]3(O)C(=O)C(C(N)=O)=C(O)[C@@H](N(C)C)[C@@H]3[C@@H](O)[C@H]12` [Methacycline Hydrochloride] had an inhibition at 2500 µM of 99.2%. `CN(C)[C@@H]1C(O)=C(C(N)=O)C(=O)[C@@]2(O)C(O)=C3C(=O)c4c(O)ccc(Cl)c4[C@@H](O)[C@H]3C[C@@H]12` [Demeclocycline Hydrochloride] showed an inhibition at 2500 µM of 99.6%. Still for that read-out and setting: with `CN(C)[C@@H]1C(=O)C(C(N)=O)=C(O)[C@@]2(O)C(=O)C3=C(O)c4c(O)cccc4[C@@](C)(O)[C@H]3[C@H](O)[C@@H]12` [Oxytetracycline] the figure was 99.6%; with `O=C(O[C@@H]1Cc2c(O)cc(O)cc2O[C@@H]1c1ccc(O)c(O)c1)c1cc(O)c(O)c(O)c1` [Epicatechin monogallate], 52.8%. `Cc1cc2nc3c(=O)[nH]c(=O)nc-3n(C[C@H](O)[C@H](O)[C@H](O)CO)c2cc1C` [Riboflavin]: the inhibition at 500 µM amounted to 96.5%. For the compound `O=c1c(O)c(-c2ccc(O)c(O)c2)oc2c(O)c(O)cc(O)c12` [Gossypetin], the inhibition at 2500 µM amounted to 96.1%. Take `CCC[C@@H]1C[C@@H](C(=O)N[C@@H]([C@H]2O[C@H](SC)[C@H](O)[C@@H](O)[C@H]2O)[C@@H](C)O)N(C)C1` [Lincomycin]: testing at 2500 µM gave an inhibition of 26.8%.

In turn, `O=c1c(O)cccc2cc(O)c(O)c(O)c12` [Purpurogallin] yielded an inhibition at 2500 µM of 36.1%. `C[C@H]1c2cccc(O)c2C(O)=C2C(=O)[C@]3(O)C(O)=C(C(N)=O)C(=O)[C@@H](N(C)C)[C@@H]3[C@@H](O)[C@@H]21` [Doxycycline Hydrochloride] gave an inhibition at 2500 µM of 98.3%.

The test is the same for the next values; noted with them: 2500 µM; 5 mM glycocholic acid, about 10 mM DTT, 0.1 M sodium phosphate pH 6.0, 37 °C, 30 min preincubation.
Take `O=[N+]([O-])c1cc([As](=O)(O)O)ccc1O` [Roxarsone]: the “% Inhibition” value was 48.6%.
